Measured values as given in publication PMC7115494 (European Journal of Medicinal Chemistry, 2012).

How the values were obtained:
[1] = test system: herpesviruses and poxviruses; settings: EC50 in the μM range; cited from earlier work
HEL cells = assay: Cytotoxicity in HEL cells: cell morphology; format: cell-based, human; settings: microscopically detectable alteration of cell morphology
[2] = test system: Vaccinia virus Lederle strain; assay: microbe, parasite or virus in culture; format: cell-based
VZV TK+ strain Oka = assay: microbe, parasite or virus in culture; format: cell-based, varicella-zoster virus; settings: Human alphaherpesvirus 3, Fibroblast, read-out: EC50 VZV TK+ strain Oka
HSV = assay: Antiviral activity against HSV, strains summarised in text; format: cell-based, herpes simplex virus; settings: for EC50: read-out: EC50 HSV, range over strains
HCMV = assay: Antiviral activity against HCMV, strains summarised in text; format: cell-based, human cytomegalovirus; settings: for EC50: Human betaherpesvirus 5, read-out: EC50 HCMV, range over strains
VZV = assay: Antiviral activity against VZV, strains summarised in text; format: cell-based, varicella-zoster virus; settings: for EC50: Human alphaherpesvirus 3, read-out: EC50 VZV, range over strains
VZV TK- strain YS/R = format: cell-based, varicella-zoster virus; settings: HEL fibroblasts
Feline herpesvirus = assay: Antiviral activity against feline herpesvirus in CRFK cells; format: cell-based
[3] = test system: herpesviruses and poxviruses; settings: for Activity against herpesviruses and poxviruses: in vitro
VZV TK+ strain YS = format: cell-based, varicella-zoster virus; settings: HEL fibroblasts

## Nc1nc2c(ncn2C[C@@H](CO)OCP(=O)(O)O)c(=O)[nH]1 [(S)-HPMPG, 9-(S)-[3-hydroxy-2-(phosphonomethoxy)propyl]guanine, reference compound]
[1]
  Reported activity against HSV-1, HSV-2, VZV, CMV and vaccinia virus: active
HEL cells
  Cytotoxicity in HEL cells, cell morphology, MCC (minimum cytotoxic concentration): >100 μM

## O=c1[nH]c(=O)n([C@H]2C[C@H](O)[C@@H](CO)O2)cc1/C=C/Br [Brivudin, reference compound]
[2]; Orthopoxvirus vaccinia, Fibroblast, read-out: EC50 Vaccinia virus Lederle
  EC50: 15000 ± 17000 nM
VZV TK+ strain Oka
  EC50: 10 ± 10 nM
HEL cells
  Cytotoxicity in HEL cells, cell morphology, MCC (minimum cytotoxic concentration): >300 μM

## CCCCCCCCCCCCCCCCOCCCOP(=O)(CO[C@H](CO)Cn1cnc2c(=O)[nH]c(N)nc21)OCCCOCCCCCCCCCCCCCCCC [Compound 14, Bis 3-(hexadecyloxypropyl) ester of 9-(S)-[3-hydroxy-2-(phosphonomethoxy)propyl]guanine]
[2]
  Fold difference of EC50 versus parent compound (S)-HPMPG, VACV: 41 fold
HSV; printed as lower than parent
  Fold difference of EC50 versus parent compound (S)-HPMPG, HSV: 15- to 40 fold
HCMV; printed as lower than parent
  Fold difference of EC50 versus parent compound (S)-HPMPG, HCMV: 7 fold
VZV; printed as lower than parent
  Fold difference of EC50 versus parent compound (S)-HPMPG, VZV: 7 fold
VZV TK- strain YS/R
  Selectivity index (ratio CC50 to EC50) VZV YS/R: >57
HEL cells
  Cytotoxicity in HEL cells, cell morphology, MCC (minimum cytotoxic concentration): ≥22.6 μM
Feline herpesvirus; printed as lower than parent
  Fold difference of EC50 versus parent compound (S)-HPMPG, feline herpesvirus: 157 fold

## CCCCCCCCCCCCCCCCOCCCOP(=O)(CCOCCn1cnc2c(=O)[nH]cnc21)OCCCOCCCCCCCCCCCCCCCC [Compound 3, Bis 3-(hexadecyloxypropyl) ester of 9-[2-(phosphonomethoxy)ethyl]hypoxanthine]
[3]
  Activity against herpesviruses and poxviruses: inactive
HEL cells
  Cytotoxicity in HEL cells, cell morphology, MCC (minimum cytotoxic concentration): ≥117 μM

## Nc1nc(O)c2ncn(COC(CO)CO)c2n1 [Ganciclovir, reference compound]
HEL cells
  Cytotoxicity in HEL cells, cell morphology, MCC (minimum cytotoxic concentration): >394 μM

## Nc1nc2c(ncn2COCCO)c(=O)[nH]1 [Acyclovir, reference compound]
HEL cells
  Cytotoxicity in HEL cells, cell morphology, MCC (minimum cytotoxic concentration): >444 μM

## CCCCCCCCCCCCCCCCOCCCOP(=O)(O)CO[C@H](CO)Cn1cnc2c(=O)[nH]cnc21 [Compound 15, 3-(Hexadecyloxypropyl) ester of 9-(S)-[3-hydroxy-2-(phosphonomethoxy)propyl]hypoxanthine]
[3]
  Activity against herpesviruses and poxviruses: totally inactive
HEL cells
  Cytotoxicity in HEL cells, cell morphology, MCC (minimum cytotoxic concentration): ≥34 μM

## Nc1nc2c(ncn2C[C@H]2COP(=O)(O)CO2)c(=O)[nH]1 [(S)-cHPMPG, reference compound]
HEL cells
  Cytotoxicity in HEL cells, cell morphology, MCC (minimum cytotoxic concentration): >100 μM

## CCCCCCCCCCCCCCCCOCCCOP(=O)(CO[C@H](CO)Cn1cnc2c(=O)[nH]cnc21)OCCCOCCCCCCCCCCCCCCCC [Compound 13, Bis 3-(hexadecyloxypropyl) ester of 9-(S)-[3-hydroxy-2-(phosphonomethoxy)propyl]hypoxanthine]
[3]
  Activity against herpesviruses and poxviruses: totally inactive
HEL cells
  Cytotoxicity in HEL cells, cell morphology, MCC (minimum cytotoxic concentration): ≥23 μM

## CCCCCCCCCCCCCCCCOCCCOP1(=O)CO[C@@H](Cn2cnc3c(=O)[nH]cnc32)CO1 (stereo partly drawn) [Compound 17, 3-(Hexadecyloxypropyl) ester of 9-{[(5S)-2-hydroxy-2-oxido-1,4,2-dioxaphosphinan-5-yl]methyl}hypoxanthine]
[3]
  Activity against herpesviruses and poxviruses: totally inactive
HEL cells
  Cytotoxicity in HEL cells, cell morphology, MCC (minimum cytotoxic concentration): ≥7 μM

## CCCCCCCCCCCCCCCCOCCCOP(=O)(O)CO[C@H](CO)Cn1cnc2c(=O)[nH]c(N)nc21 [Compound 16, 3-(Hexadecyloxypropyl) ester of 9-(S)-[3-hydroxy-2-(phosphonomethoxy)propyl]guanine]
HSV
  EC50: 7 to 90 nM
HCMV
  EC50: 2 to 7 nM
VZV
  EC50: 1 to 2.5 nM
[3]; across viruses
  SIs fold lower compared to compound 18: 2- to 66 fold
HEL cells
  Cytotoxicity in HEL cells, cell morphology, MCC (minimum cytotoxic concentration): ≥1.3 μM
Feline herpesvirus; CRFK cells
  Activity against feline herpesvirus: inactive

## CCCCCCCCCCCCCCCCOCCCOP1(=O)CO[C@@H](Cn2cnc3c(=O)[nH]c(N)nc32)CO1 (stereo partly drawn) [Compound 18, 3-(Hexadecyloxypropyl) ester of 9-{[(5S)-2-hydroxy-2-oxido-1,4,2-dioxaphosphinan-5-yl]methyl}guanine]
VZV TK+ strain YS
  Selectivity index (ratio CC50 to EC50) VZV YS: 19,000
HSV; ratio CC50 to EC50
  Selectivity index HSV, range over strains: 211–559
HSV
  EC50: 7 to 90 nM
HCMV
  EC50: 2 to 7 nM
HCMV; ratio CC50 to EC50
  Selectivity index HCMV, range over strains: 3800–9500
VZV
  EC50: 1 to 2.5 nM
VZV; ratio CC50 to EC50
  Selectivity index VZV, range over strains: 2700–19,000
HEL cells
  Cytotoxicity in HEL cells, cell morphology, MCC (minimum cytotoxic concentration): ≥171.3 μM

## Nc1ccn(C[C@@H](CO)OCP(=O)(O)O)c(=O)n1.O.O [Cidofovir, reference compound]
HEL cells
  Cytotoxicity in HEL cells, cell morphology, MCC (minimum cytotoxic concentration): >317 μM
